Experimental data reported in patent US9492436B2, “Azabenzimidazole derivatives” (Boehringer Ingelheim International GmbH, priority 2013, dated 2016).
Converted amounts (≈) assume the structure as drawn.

Tests used:
[1] = Aqueous solubility (buffer vs acetonitrile/water, 24 h shaking, LC-UV); assay type: physicochemical; details: kinetic from dmso stock, 2.5% DMSO, ">" = more than 90% dissolved
Method: The aqueous solubility of the compounds of the invention is determined by comparing the amount dissolved in buffer to the amount in an acetonitrile/water (1/1) solution. Starting from a 10 mM DMSO stock solution aliquots are diluted with acetonitrile/water (1/1) or buffer resp. After 24 h of shaking, the solutions are filtrated and analyzed by LC-UV. The amount dissolved in buffer is compared to the amount in the acetonitrile solution.
Solubility is usually being measured from 0.001 to 0.125 mg/ml at a DMSO concentration of 2.5%. If more than 90% of the compound is dissolved in buffer, the value is marked with “>”.

[2] = target: T1, AMPK complex 1 (containing alpha1beta1gamma1) (Homo sapiens, UniProt Q13131+Q9Y478); assay: In vitro AMPK activation assay (ADP-Glo Kinase Assay); assay type: biochemical; details: 30 μM ATP, 1 μM peptide, 60 min, room temperature
T1 construct: GST (Glutathion S transferase) (N); made in house; host or cells: baculovirus; virus made in Sf9, expression in High Five cells
T1 sequence (Q13131 whole entry): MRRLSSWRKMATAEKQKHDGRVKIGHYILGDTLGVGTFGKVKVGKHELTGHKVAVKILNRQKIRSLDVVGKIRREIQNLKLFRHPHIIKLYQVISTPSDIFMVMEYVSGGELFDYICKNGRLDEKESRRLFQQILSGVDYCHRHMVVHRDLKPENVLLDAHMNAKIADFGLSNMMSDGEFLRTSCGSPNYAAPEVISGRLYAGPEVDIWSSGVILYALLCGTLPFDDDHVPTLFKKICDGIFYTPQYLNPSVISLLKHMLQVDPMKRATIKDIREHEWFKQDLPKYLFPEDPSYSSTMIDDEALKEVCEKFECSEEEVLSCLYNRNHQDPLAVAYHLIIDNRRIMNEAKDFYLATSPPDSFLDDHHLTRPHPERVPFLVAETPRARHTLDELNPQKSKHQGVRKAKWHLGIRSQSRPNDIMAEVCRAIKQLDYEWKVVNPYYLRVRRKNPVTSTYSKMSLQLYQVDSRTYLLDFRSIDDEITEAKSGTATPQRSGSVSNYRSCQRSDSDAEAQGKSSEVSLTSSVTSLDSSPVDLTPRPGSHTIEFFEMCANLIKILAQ
T1 sequence (Q9Y478 whole entry): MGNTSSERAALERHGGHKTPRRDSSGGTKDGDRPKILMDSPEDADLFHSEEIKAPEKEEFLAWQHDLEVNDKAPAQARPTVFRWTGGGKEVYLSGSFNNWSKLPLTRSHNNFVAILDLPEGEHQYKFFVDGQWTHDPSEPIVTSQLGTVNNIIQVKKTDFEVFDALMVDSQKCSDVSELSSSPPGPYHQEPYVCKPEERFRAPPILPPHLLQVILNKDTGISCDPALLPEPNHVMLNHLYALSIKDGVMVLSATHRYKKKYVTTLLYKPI
T1 sequence (P54619 whole entry partner): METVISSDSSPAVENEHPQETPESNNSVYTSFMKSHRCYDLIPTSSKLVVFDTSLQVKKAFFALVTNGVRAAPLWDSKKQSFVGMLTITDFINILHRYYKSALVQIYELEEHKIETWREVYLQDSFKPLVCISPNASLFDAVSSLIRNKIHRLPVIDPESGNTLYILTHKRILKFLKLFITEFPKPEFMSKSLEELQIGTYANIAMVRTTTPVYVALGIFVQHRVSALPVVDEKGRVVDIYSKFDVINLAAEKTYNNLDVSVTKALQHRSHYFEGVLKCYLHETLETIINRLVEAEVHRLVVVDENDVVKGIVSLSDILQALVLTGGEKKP
Excerpt: Activated AMPK complex 1 (containing alpha1beta1gamma1) was obtained from baculovirus expression system. The gene encoding AMPK alpha1 was cloned into the pACG2T vector (BD Biosciences) to obtain a N-terminal Glutathion S transferase (GST)-fusion protein. The genes encoding AMPK beta 1 and gamma1 were cloned into the p2Bac dual multiple cloning site vector (Invitrogen) with beta1 under the control of the p10 promoter and gamma1 under the control of the PH promoter. The transfer vectors containing AMPK were co-transfected individually with AcPNV BacMagic-3 DNA (EMD Millipore) in Sf9 cells and the recombinant baculoviruses were harvested after 5 days, followed by 3 rounds of amplification of the virus stock in Sf9 cells. AMPK (alpha1beta1gamma1) was expressed in High Five 5 cells by co-infection of recombinant alpha1 virus and recombinant beta1/gamma1 virus for 72 h at 27° C. Cells were harvested by centrifugation and lysed by 3 freeze/thaw cycles in PBS with 10% glycerol and protease inhibitor cocktail (Roche). After centrifugation AMPK a1b1g1 in the supernatant was captured by immobilized glutathione (GE Healthcare), impurities were washed away with PBS and AMPK alpha1beta1gamma1 was eluted with PBS containing 20 mM reduced gluthathione. The protein buffer was then exchanged to PBS with 10% glycerol and protein concentration was determined by UV absorbance.
The white 384-well Optiplates (cat.no. 6007299) were purchased from PerkinElmer. The V9101 ADP-Glo Kinase Assay and ultra pure ATP (V915A) was purchased from Promega. The substrate for AMPK (NH2-HMRSAMSGLHLVKRR_CONH2) was purchased from Upstate (12-355).
Compounds were tested in either serial dilutions or single dose concentrations. The serial compound dilutions were prepared in 100% DMSO automatically. The final DMSO concentration in the assay was 0.1%.
The Compound Stock Solutions were 10 mM in 100% DMSO. The compounds were solubilised at room temperature.
In the 384-well plates 1.25 ul of test compound in assay buffer was mixed with 1.25 ul of AMPK and 1.25 μl of the peptide (final concentration of 1 μM) and 1.25 μl of ATP (final concentration of 30 μM), both dissolved in assay buffer. This step was followed by an incubation time of 60 min. Then 5 μl of ADP Glo Reagent was added. This was followed by 40 min of incubation. Then 10 μl of Kinase Detection Reagent was admixed. The plates were sealed and after an incubation period of 30 min, the luminescence signal was measured in an Envision reader. All incubation steps were accomplished at room temperature.
Each assay microtiter plate contained wells with vehicle controls instead of compound (0.1% DMSO in water) as reference for the low signal (100% CTL, low signal), and wells with serial dilutions of AMP (final 30 μM) as reference for high signals.
The luminescence signal generated was proportional to the ADP concentration produced and was correlated with AMPK activity. The analysis of the data was performed by the calculation of the percentage of ATP consumption of AMPK in the presence of the test compound compared to the consumption of ATP in the presence of AMPK without compound. (RLU(sample)/RLU(low control))*100[RLU=relative luminescence units]
An activator of the AMPK enzyme gave values above 100% CTL.
EC50 values based on dose response curves are calculated with the XIFIT software using the 4 Parameter Logistic Model or Sigmoidal Dose-Response Model.

Row | solubility at 24 h ([1]; pH 2.2 buffer) [µg/mL] | solubility at 24 h ([1]; pH 4.5 buffer) [µg/mL] | solubility at 24 h ([1]; pH 6.8 buffer) [µg/mL] | Compound | EC50 [2] [nM]
1 | 15 (≈ 27.2 µM) | < 1 | < 1 | CS(=O)(=NC#N)c1ccc(-c2ccc(-c3nc4[nH]c(O[C@@H]5CO[C@H]6[C@@H]5OC[C@H]6O)nc4cc3Cl)cc2)cc1 (stereo partly drawn) [Example 7, S-(4′-(6-Chloro-2-((3R,3aR,6R,6aR)-6-hydroxyhexahydrofuro[3,2-b]furan-3-yloxy)-3H-imidazo[4,5-b]pyridin-5-yl)biphenyl-4-yl)-S-methyl-N-cyano-sulfoximide] | 1
2 | < 80 | > 7 | < 1 | CS(C)(=O)=Nc1ccc(-c2ccc(-c3nc4[nH]c(O[C@@H]5CO[C@H]6[C@@H]5OC[C@H]6O)nc4cc3Cl)cc2)cn1 [Example 22, N-(5-(4-(6-Chloro-2-((3R,3aR,6R,6aR)-6-hydroxyhexahydrofuro[3,2-b]furan-3-yloxy)-3H-imidazo[4,5-b]pyridin-5-yl)phenyl)pyridin-2-yl)-S,S-dimethylsulfoximide] | 45
3 | 69 (≈ 131 µM) | 2 (≈ 3.8 µM) | 1 (≈ 1.9 µM) | CS(=N)(=O)c1ccc(-c2ccc(-c3nc4[nH]c(O[C@@H]5CO[C@H]6[C@@H]5OC[C@H]6O)nc4cc3Cl)cc2)cc1 (stereo partly drawn) [Example 23, (3R,3aR,6R,6aR)-6-(6-Chloro-5-(4′-(S-methylsulfonimidoyl)biphenyl-4-yl)-3H-imidazo[4,5-b]pyridin-2-yloxy)hexahydrofuro[3,2-b]furan-3-ol] | 10
4 | 77 (≈ 146 µM) | < 1 | < 1 | CS(=N)(=O)c1ccc(-c2ccc(-c3nc4[nH]c(O[C@@H]5CO[C@H]6[C@@H]5OC[C@H]6O)nc4cc3Cl)cc2)nc1 (stereo partly shown) [Example 27] | 4
5 | 92 (≈ 170 µM) | < 1 | < 1 | CN=S(C)(=O)c1ccc(-c2ccc(-c3nc4[nH]c(O[C@@H]5CO[C@H]6[C@@H]5OC[C@H]6O)nc4cc3Cl)cc2)nc1 (stereo partly drawn) [Example 28, (3R,3aR,6R,6aR)-6-(6-Chloro-5-(4-(5-(N,S-dimethylsulfonimidoyl)pyridin-2-yl)phenyl)-3H-imidazo[4,5-b]pyridin-2-yloxy)hexahydrofuro[3,2-b]furan-3-ol] | 2
6 | > 122 | 105 (≈ 187 µM) | 89 (≈ 158 µM) | CS(C)(=O)=NCC1CCN(c2ccc(-c3nc4[nH]c(O[C@@H]5CO[C@H]6[C@@H]5OC[C@H]6O)nc4cc3Cl)cc2)CC1 [Example 31, N-(1-(4-(6-Chloro-2-((3R,3aR,6R,6aR)-6-hydroxyhexahydrofuro[3,2-b]furan-3-yloxy)-3H-imidazo[4,5-b]pyridin-5-yl)phenyl)piperidin-4-ylmethyl)-S,S-dimethylsulfoximide] | 17
7 | 4 (≈ 7.37 µM) | 5 (≈ 9.21 µM) | 13 (≈ 23.9 µM) | CS(C)(=O)=Nc1cnc(-c2ccc(-c3nc4[nH]c(O[C@@H]5CO[C@H]6[C@@H]5OC[C@H]6O)nc4cc3Cl)cc2)nc1 [Example 34, N-(2-{4-[6-Chloro-2-((3R,3aR,6R,6aR)-6-hydroxyhexahydrofuro[3,2-b]furan-3-yloxy)-3H-imidazo[4,5-b]pyridin-5-yl]-phenyl}-pyrimidin-5-yl)-S,S-dimethylsulfoximide] | 3
8 | 99 (≈ 183 µM) | < 1 | < 1 | CS(C)(=O)=Nc1cc(-c2ccc(-c3nc4[nH]c(O[C@@H]5CO[C@H]6[C@@H]5OC[C@H]6O)nc4cc3Cl)cc2)ccn1 [Example 36, N-(4-{4-[6-Chloro-2-((3R,3aR,6R,6aR)-6-hydroxyhexahydrofuro[3,2-b]furan-3-yloxy)-3H-imidazo[4,5-b]pyridin-5-yl]-phenyl}-pyridin-2-yl)-S,S-dimethylsulfoximide] | 15
9 | > 128 | > 117 | 88 (≈ 162 µM) | CS(C)(=O)=Nc1ccc(-c2ccc(-c3nc4[nH]c(O[C@@H]5CO[C@H]6[C@@H]5OC[C@H]6O)nc4cc3Cl)cc2)nn1 [Example 50, N-(6-{4-[6-Chloro-2-((3R,3aR,6R,6aR)-6-hydroxyhexahydrofuro[3,2-b]furan-3-yloxy)-3H-imidazo[4,5-b]pyridin-5-yl]-phenyl}-pyridazin-3-yl)-S,S-dimethylsulfoximide] | 304
10 | > 146 | 28 (≈ 50.4 µM) | 2 (≈ 3.6 µM) | CS(C)(=O)=NCc1ccc(-c2ccc(-c3nc4[nH]c(O[C@@H]5CO[C@H]6[C@@H]5OC[C@H]6O)nc4cc3Cl)cc2)cn1 [Example 51, N-(5-{4-[6-Chloro-2-((3R,3aR,6R,6aR)-6-hydroxyhexahydrofuro[3,2-b]furan-3-yloxy)-3H-imidazo[4,5-b]pyridin-5-yl]-phenyl}-pyridin-2-ylmethyl)-S,S-dimethylsulfoximide] | 92
11 | 42 (≈ 77.6 µM) | < 1 | < 1 | CS(=N)(=O)Cc1ccc(-c2ccc(-c3nc4[nH]c(O[C@@H]5CO[C@H]6[C@@H]5OC[C@H]6O)nc4cc3Cl)cc2)cc1 (stereo partly drawn) [Example 52, (3R,3aR,6R,6aR)-6-(6-Chloro-5-(4′-(S-methylsulfonimidoylmethyl)biphenyl-4-yl)-3H-imidazo[4,5-b]pyridin-2-yloxy)hexahydrofuro[3,2-b]furan-3-ol] | 3
12 |  |  |  | CS(C)(=N)=Nc1ccc(-c2nc3[nH]c(O[C@@H]4CO[C@H]5[C@@H]4OC[C@H]5O)nc3cc2Cl)cc1 [Example 56, N-(4-(6-Chloro-2-((3R,3aR,6R,6aR)-6-hydroxyhexahydrofuro[3,2-b]furan-3-yloxy)-3H-imidazo[4,5-b]pyridin-5-yl)phenyl)-S,S-dimethyl-sulfondiimine] | 41
13 |  |  |  | CN=S1(=O)CC2CN(c3ccc(-c4nc5[nH]c(O[C@@H]6CO[C@H]7[C@@H]6OC[C@H]7O)nc5cc4Cl)cc3)CC2C1 (stereo partly drawn) [Example 57, (3R,3aR,6R,6aR)-6-{6-Chloro-5-[4-(2-methylimino-2-oxo-hexahydro-2λ^6-thieno[3,4-c]pyrrol-5-yl)-phenyl]-3H-imidazo[4,5-b]pyridin-2-yloxy}-hexahydro-furo[3,2-b]furan-3-ol] | 118
